Drawing on patent US7956190B2, “Benzimidazole amido derivatives as kinase inhibitors” (Hoffmann-La Roche Inc., priority 2007, dated 2011), this text covers IC50 for 25 compounds.

SMILES strings stand for the structures.

The test system of this experiment is HCT 116 cells. As to the kind of experiment: CellTiter-Glo Assay in HCT 116 Cells. The format is cell-based. As to conditions: HCT 116 human colon carcinoma cells, 5 days (120 h) incubation, CellTiter-Glo luminescence, tested in triplicate. The source says:
CellTiter-Glo™ Assay in HCT 116 Cells
The CellTiter-Glo™ Luminescent Cell Viability Assay (Promega) is a homogeneous method of determining the number of viable cells in culture based on quantitation of the ATP present, which signals the presence of metabolically active cells.
HCT 116 cells (human colon carcinoma, ATCC-No. CCl-247) were cultivated in RPMI 1640 medium with GlutaMAX™ I (Invitrogen, Cat-No. 61870-010), 5% Fetal Calf Serum (FCS, Sigma Cat-No. F4135 (FBS)); 100 Units/ml penicillin/100 μg/ml streptomycin (=Pen/Strep from Invitrogen Cat. No. 15140). For the assay the cells were seeded in 384 well plates, 1000 cells per well, in the same medium. The next day the test compounds were added in various concentrations ranging from 30 μM to 0.0015 μM (10 concentrations, 1:3 diluted). After 5 days the CellTiter-Glo™ assay was done according to the instructions of the manufacturer (CellTiter-Glo™ Luminescent Cell Viability Assay, from Promega). In brief: the cell-plate was equilibrated to room temperature for approximately 30 minutes and than the CellTiter-Glo™ reagent was added. The contents were carefully mixed for 15 minutes to induce cell lysis. After 45 minutes the luminescent signal was measured in Victor 2, (scanning multiwell spectrophotometer, Wallac).
• Medium: RPMI 1640 with GlutaMAX™ I (Invitrogen, Cat-Nr. 61870), 5% FCS (Sigma Cat.-No. F4135), Pen/Strep (Invitrogen, Cat No. 15140). • HCT116 (ATCC-No. CCl-247): 1000 cells in 60 μl per well of 384 well plate (Greiner 781098, μClear-plate white) • After seeding incubate plates 24 h at 37° C., 5% CO2 2nd. Day: Induction (Treatment with Compounds, 10 Concentrations):
In order to achieve a final concentration of 30 μM as highest concentration 3.5 μl of 10 mM compound stock solution were added directly to 163 μl media. Then step e) of the dilution procedure described below, was followed.
`COc1ccc(OC(=O)Nc2cccc3nc(-c4c(NC[C@@H](O)c5ccccc5)cc[nH]c4=O)[nH]c23)cc1` [Example C-1, {2-[4-((S)-2-Hydroxy-2-phenyl-ethylamino)-2-oxo-1,2-dihydro-pyridin-3-yl]-3H-benzoimidazol-4-yl}-carbamic acid 4-methoxy-phenyl ester] displayed an IC50 of 1 to 15 µM.

`O=C(Nc1cccc2nc(-c3c(NCc4cccc(Cl)c4)cc[nH]c3=O)[nH]c12)c1ccccc1` [Example B-2, N-{2-[4-(3-Chloro-benzylamino)-2-oxo-1,2-dihydro-pyridin-3-yl]-3H-benzoimidazol-4-yl}-benzamide] displayed an IC50 of 1 to 15 µM.

`O=C(Nc1cccc2nc(-c3c(NC[C@@H](O)c4ccccc4)cc[nH]c3=O)[nH]c12)C1CC1` [Example B-8, Cyclopropanecarboxylic acid {2-[4-((S)-2-hydroxy-2-phenyl-ethylamino)-2-oxo-1,2-dihydro-pyridin-3-yl]-3H-benzoimidazol-4-yl}-amide] gave an IC50 of 1 to 15 µM.

With `O=C(Nc1ccc(OC(F)(F)F)cc1)Nc1cccc2nc(-c3c(NC[C@@H](O)c4ccccc4)cc[nH]c3=O)[nH]c12` [Example D-4, 1-{2-[4-((S)-2-Hydroxy-2-phenyl-ethylamino)-2-oxo-1,2-dihydro-pyridin-3-yl]-3H-benzoimidazol-4-yl}-3-(4-trifluoromethoxy-phenyl)-urea], the IC50 lay within 1 to 15 µM.

`COc1ccc(C(=O)Nc2cccc3nc(-c4c(NCc5ccccn5)cc[nH]c4=O)[nH]c23)cc1` [Example A-6, 4-Methoxy-N-(2-{2-oxo-4-[(pyridin-2-ylmethyl)-amino]-1,2-dihydro-pyridin-3-yl}-3H-benzoimidazol-4-yl)-benzamide] displayed an IC50 of 1 to 15 µM.

Regarding `O=C(Nc1cccc2nc(-c3c(NC[C@@H](O)c4ccccc4)cc[nH]c3=O)[nH]c12)c1cccc(F)c1` [Example B-15, 3-Fluoro-N-{2-[4-((S)-2-hydroxy-2-phenyl-ethylamino)-2-oxo-1,2-dihydro-pyridin-3-yl]-3H-benzoimidazol-4-yl}-benzamide], the IC50 turned out to be 6.92 µM.

Consider `COc1ccc(C(=O)Nc2cccc3nc(-c4c(NCc5ccccc5)cc[nH]c4=O)[nH]c23)cc1` [Example A-3, N-[2-(4-Benzylamino-2-oxo-1,2-dihydro-pyridin-3-yl)-3H-benzoimidazol-4-yl]-4-methoxy-benzamide], for which the IC50 lay within 1 to 15 µM.

With `CC(C)(OC(=O)Nc1cccc2nc(-c3c(NC[C@@H](O)c4ccccc4)cc[nH]c3=O)[nH]c12)C(Cl)(Cl)Cl` [Example C-3, {2-[4-((S)-2-Hydroxy-2-phenyl-ethylamino)-2-oxo-1,2-dihydro-pyridin-3-yl]-3H-benzoimidazol-4-yl}-carbamic acid 2,2,2-trichloro-1,1-dimethyl-ethyl ester], the IC50 was 1 to 15 µM.

As to `O=C(Nc1cccc2nc(-c3c(NCc4ccccn4)cc[nH]c3=O)[nH]c12)c1ccccc1` [Example A-5, N-(2-{2-oxo-4-[(pyridin-2-ylmethyl)-amino]-1,2-dihydro-pyridin-3-yl}-3H-benzoimidazol-4-yl)-benzamide], the IC50 is 1 to 15 µM.

Consider `O=C(Nc1cccc2nc(-c3c(NCC(O)c4ccccc4)cc[nH]c3=O)[nH]c12)c1ccccc1Cl` (stereo not shown) [Example B-10, 2-Chloro-N-{2-[4-(2-hydroxy-2-phenyl-ethylamino)-2-oxo-1,2-dihydro-pyridin-3-yl]-3H-benzoimidazol-4-yl}-benzamide], for which the IC50 lay in the range of 1 to 15 µM.

Regarding `O=C(Nc1cccc2nc(-c3c(NCc4ccccc4)cc[nH]c3=O)[nH]c12)c1ccccc1` [Example A-4, N-[2-(4-Benzylamino-2-oxo-1,2-dihydro-pyridin-3-yl)-3H-benzoimidazol-4-yl]-benzamide], the IC50 fell in the range of 1 to 15 µM.

`COCCOC(=O)Nc1cccc2nc(-c3c(NC[C@@H](O)c4ccccc4)cc[nH]c3=O)[nH]c12` [Example C-2, {2-[4-((S)-2-Hydroxy-2-phenyl-ethylamino)-2-oxo-1,2-dihydro-pyridin-3-yl]-3H-benzoimidazol-4-yl}-carbamic acid 2-methoxy-ethyl ester] gave an IC50 of 1 to 15 µM.

In the case of `COc1cccc(NC(=O)Nc2cccc3nc(-c4c(NC[C@@H](O)c5ccccc5)cc[nH]c4=O)[nH]c23)c1` [Example D-6, 1-{2-[4-((S)-2-Hydroxy-2-phenyl-ethylamino)-2-oxo-1,2-dihydro-pyridin-3-yl]-3H-benzoimidazol-4-yl}-3-(3-methoxy-phenyl)-urea], the IC50 lay in the range of 1 to 15 µM.

Compound `O=C(Nc1cccc2nc(-c3c(NCc4ccccc4)cc[nH]c3=O)[nH]c12)c1ccc(Cl)cc1` [Example A-18, N-[2-(4-Benzylamino-2-oxo-1,2-dihydro-pyridin-3-yl)-3H-benzoimidazol-4-yl]-4-chloro-benzamide] registered an IC50 of 1 to 15 µM.

As for `O=C(Nc1ccccc1Cl)Nc1cccc2[nH]c(-c3c(NC[C@@H](O)c4cccc(Cl)c4)cc[nH]c3=O)nc12` [Example D-8, 1-(2-Chloro-phenyl)-3-(2-{4-[(S)-2-(3-chloro-phenyl)-2-hydroxy-ethylamino]-2-oxo-1,2-dihydro-pyridin-3-yl}-1H-benzoimidazol-4-yl)-urea], the IC50 was 1 to 15 µM.

Consider `O=C(COc1ccc(Cl)cc1)Nc1cccc2nc(-c3c(NC[C@@H](O)c4ccccc4)cc[nH]c3=O)[nH]c12` [Example B-11, 2-(4-Chloro-phenoxy)-N-{2-[4-((S)-2-hydroxy-2-phenyl-ethylamino)-2-oxo-1,2-dihydro-pyridin-3-yl]-3H-benzoimidazol-4-yl}-acetamide], for which the IC50 lay in the range of 1 to 15 µM.

Compound `O=C(Nc1cccc2nc(-c3c(NC[C@@H](O)c4ccccc4)cc[nH]c3=O)[nH]c12)c1ccccc1F` [Example B-9, 2-Fluoro-N-{2-[4-((S)-2-hydroxy-2-phenyl-ethylamino)-2-oxo-1,2-dihydro-pyridin-3-yl]-3H-benzoimidazol-4-yl}-benzamide] yielded an IC50 of 1 to 15 µM.

In turn, `COc1ccc(C(=O)Nc2cccc3nc(-c4c(NCc5cccc(Cl)c5)cc[nH]c4=O)[nH]c23)cc1` [Example A-8, N-{2-[4-(3-Chloro-benzylamino)-2-oxo-1,2-dihydro-pyridin-3-yl]-3H-benzoimidazol-4-yl}-4-methoxy-benzamide] had an IC50 of 1 to 15 µM.

With `O=C(Nc1cccc2nc(-c3c(NC[C@@H](O)c4ccccc4)cc[nH]c3=O)[nH]c12)c1ccc(F)cc1` [Example A-12, 4-Fluoro-N-{2-[4-((S)-2-hydroxy-2-phenyl-ethylamino)-2-oxo-1,2-dihydro-pyridin-3-yl]-3H-benzoimidazol-4-yl}-benzamide], the IC50 lay within 1 to 15 µM.

`O=C(Nc1cccc2nc(-c3c(NC[C@@H](O)c4ccccc4)cc[nH]c3=O)[nH]c12)c1ccc(Cl)cc1Cl` [Example B-16, 2,4-Dichloro-N-{2-[4-((S)-2-hydroxy-2-phenyl-ethylamino)-2-oxo-1,2-dihydro-pyridin-3-yl}-3H-benzoimidazol-4-yl]-benzamide] showed a concentration for half-maximal inhibition (IC50) of 1 to 15 µM.

As to `O=C(Nc1cccc2nc(-c3c(NC[C@@H](O)c4ccccc4)cc[nH]c3=O)[nH]c12)c1ccc(C(F)(F)F)cc1` [Example A-15, N-{2-[4-((S)-2-Hydroxy-2-phenyl-ethylamino)-2-oxo-1,2-dihydro-pyridin-3-yl]-3H-benzoimidazol-4-yl}-4-trifluoromethyl-benzamide], the IC50 fell in the range of 1 to 15 µM.

As to `O=C(Nc1cccc(F)c1)Nc1cccc2nc(-c3c(NC[C@@H](O)c4ccccc4)cc[nH]c3=O)[nH]c12` [Example D-1, 1-(3-Fluoro-phenyl)-3-{2-[4-((S)-2-hydroxy-2-phenyl-ethylamino)-2-oxo-1,2-dihydro-pyridin-3-yl]-3H-benzoimidazol-4-yl}-urea], the IC50 lay in the range of 1 to 15 µM.

`O=C(Nc1cccc2nc(-c3c(NCc4ccccn4)cc[nH]c3=O)[nH]c12)c1ccc(Cl)cc1` [Example A-7, 4-Chloro-N-(2-{2-oxo-4-[(pyridin-2-ylmethyl)-amino]-1,2-dihydro-pyridin-3-yl}-3H-benzoimidazol-4-yl)-benzamide] registered a 50% inhibitory concentration (IC50) of 1 to 15 µM.

`O=C(Cc1ccccc1)Nc1cccc2nc(-c3c(NC[C@@H](O)c4ccccc4)cc[nH]c3=O)[nH]c12` [Example B-1, N-{2-[4-((S)-2-Hydroxy-2-phenyl-ethylamino)-2-oxo-1,2-dihydro-pyridin-3-yl]-3H-benzoimidazol-4-yl}-2-phenyl-acetamide] displayed an IC50 of 1 to 15 µM.

Compound `O=C(Nc1cccc2nc(-c3c(NC[C@@H](O)c4ccccc4)cc[nH]c3=O)[nH]c12)c1cccc(C(F)(F)F)c1` [Example B-5, N-{2-[4-((S)-2-Hydroxy-2-phenyl-ethylamino)-2-oxo-1,2-dihydro-pyridin-3-yl]-3H-benzoimidazol-4-yl}-3-trifluoromethyl-benzamide] returned an IC50 of 1 to 15 µM.
